The record followed here is patent US12391698B2, “Substituted piperidines and piperazines and methods for the treatment of CNS disorders” (SUVEN LIFE SCIENCES LIMITED, priority 2022, dated 2025).

Series [1] deals with cloned human SERT receptor (Homo sapiens, UniProt P31645). Kind of series: Determination of Ki at SERT receptor (SPA binding, [3H]-Citalopram). The settings on record: HEK293 recombinant cells; [3H]-Citalopram 2 nM; cells printed in μM; read-out: Ki hSERT. The method in brief: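 HEK293-expressed human SERT; [3H]-citalopram at 2 nM final, nonspecific binding with 0.1 mM venlafaxine. Incubated 3 h at r.t. in 50 mM Tris-HCl pH 7.4, 150 mM NaCl, 5 mM KCl with SPA beads. Bead-proximal radioactivity compared with control values.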
Chain of cloned human SERT receptor (P31645 whole entry): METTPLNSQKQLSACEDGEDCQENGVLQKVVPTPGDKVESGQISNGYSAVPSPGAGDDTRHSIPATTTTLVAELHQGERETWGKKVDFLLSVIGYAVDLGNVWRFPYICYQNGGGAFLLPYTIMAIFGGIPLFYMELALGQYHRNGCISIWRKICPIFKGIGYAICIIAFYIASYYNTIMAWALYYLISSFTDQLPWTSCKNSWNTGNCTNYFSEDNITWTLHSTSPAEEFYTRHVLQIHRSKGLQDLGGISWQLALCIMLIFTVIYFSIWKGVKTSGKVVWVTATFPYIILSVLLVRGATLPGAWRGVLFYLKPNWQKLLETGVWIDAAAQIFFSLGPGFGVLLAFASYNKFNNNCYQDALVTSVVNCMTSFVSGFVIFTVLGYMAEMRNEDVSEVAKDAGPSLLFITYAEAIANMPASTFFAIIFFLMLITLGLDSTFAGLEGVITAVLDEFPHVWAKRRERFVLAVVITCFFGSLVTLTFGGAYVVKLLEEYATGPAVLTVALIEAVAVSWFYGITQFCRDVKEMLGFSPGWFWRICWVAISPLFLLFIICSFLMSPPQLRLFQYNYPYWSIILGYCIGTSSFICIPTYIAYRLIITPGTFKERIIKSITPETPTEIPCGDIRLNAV

The target of series [2] is T1, cloned human 5-HT2A receptor (Homo sapiens, UniProt P28223).
T1 construct: expressed in transfected cells; host or cells: CHO-K1
T1 sequence (P28223 whole entry): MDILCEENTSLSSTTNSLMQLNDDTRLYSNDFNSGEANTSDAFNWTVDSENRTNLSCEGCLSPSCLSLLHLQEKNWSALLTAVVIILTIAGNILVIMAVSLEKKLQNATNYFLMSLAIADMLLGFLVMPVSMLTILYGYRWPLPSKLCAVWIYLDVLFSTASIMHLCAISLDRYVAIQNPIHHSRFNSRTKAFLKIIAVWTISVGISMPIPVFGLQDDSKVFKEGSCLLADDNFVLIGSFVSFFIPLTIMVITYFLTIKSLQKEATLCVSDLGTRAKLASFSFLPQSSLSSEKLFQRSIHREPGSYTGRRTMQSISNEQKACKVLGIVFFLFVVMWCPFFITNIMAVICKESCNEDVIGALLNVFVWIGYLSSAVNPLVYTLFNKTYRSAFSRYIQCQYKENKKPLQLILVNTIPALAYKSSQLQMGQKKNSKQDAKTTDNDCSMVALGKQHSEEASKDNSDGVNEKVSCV
Kind of series: Determination of Ki at 5-HT2A receptor (radioligand binding, [3H]-Ketanserine). The settings on record: CHO-K1 recombinant cells; [3H]-Ketanserine 1.25 nM; read-out: Ki h5-HT2A. Summed up:
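Membranes from CHO-K1 cells expressing the receptor, incubated 1 h at r.t. with 1.25 nM [3H]-ketanserin in pH 7.4 Tris-HCl 50 mM, 4 mM CaCl2, 0.1% ascorbic acid. Nonspecific binding defined with 0.1 mM 1-naphthylpiperazine; bound label measured after filtration.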

Series [3] has as its target T2, hD2S (cloned human dopamine D2S receptor) (Homo sapiens, UniProt P14416).
T2 construct: expressed in transfected cells; host or cells: CHO-K1
The experiment in a line: Determination of Ki at D2S receptor (radioligand binding, [3H]-Raclopride). Conditions: CHO-K1 recombinant cells; [3H]-Raclopride 4 nM; read-out: Ki hD2S. Summed up: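 Displacement of 4 nM [3H]-Raclopride from membranes of CHO-K1 cells expressing the receptor, 2 h at r.t. in 50 mM Tris-HCl pH 7.4 with 120 mM NaCl, 5 mM KCl, 5 mM MgCl2, 1 mM EDTA. Non-specific binding defined with 0.1 mM haloperidol; filter-bound radioactivity compared with control.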

In series [4] the target is T3, cloned human 5-HT1A receptor (Homo sapiens, UniProt P08908).
T3 construct: expressed in transfected cells; host or cells: HEK293-EBNA
T3 sequence (P08908 1-422): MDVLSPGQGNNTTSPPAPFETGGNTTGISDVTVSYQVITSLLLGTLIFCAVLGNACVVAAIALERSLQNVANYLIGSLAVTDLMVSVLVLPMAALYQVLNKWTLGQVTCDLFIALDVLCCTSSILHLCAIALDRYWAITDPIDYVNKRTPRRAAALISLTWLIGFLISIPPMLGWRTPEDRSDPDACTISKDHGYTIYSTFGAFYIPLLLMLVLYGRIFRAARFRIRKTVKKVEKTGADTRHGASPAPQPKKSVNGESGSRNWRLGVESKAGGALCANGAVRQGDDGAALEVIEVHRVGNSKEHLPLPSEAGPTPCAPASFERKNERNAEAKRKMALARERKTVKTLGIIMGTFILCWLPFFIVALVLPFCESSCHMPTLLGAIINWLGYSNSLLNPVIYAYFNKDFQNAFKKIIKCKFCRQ
The experiment in a line: Determination of Ki at 5-HT1A receptor (radioligand binding, [3H]-8-Hydroxy DPAT). The settings on record: HEK293-EBNA recombinant cells; [3H]-8-Hydroxy DPAT 0.8 nM; read-out: Ki h5-HT1A. The method in brief: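 Membranes from HEK293-EBNA cells expressing recombinant human 5-HT1A were incubated with 0.8 nM [3H]-8-hydroxy-DPAT for 2 h at r.t. in pH 7.4 Tris-HCl buffer with EDTA, MgSO4 and ascorbic acid. Non-specific binding was defined with 0.1 mM U92016A; bound radioactivity after filtration was compared with controls.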

Series [5] is described as follows: Rodent pharmacokinetic study. In kind it is in vivo, Male Wistar rats. Conditions: rat, plasma, mean ± S.D, n = 3. The protocol:
Male Wistar rats (260±50 g) were used as experimental animals. Animals were housed individually in polypropylene cage. Two days prior to study, male Wistar rats were anesthetized with isoflurane for surgical placement of jugular vein catheter. Rats were randomly divided for oral (3 mg/kg) and intravenous (1 mg/kg) dosing (n=3/group) and fasted overnight before oral dosing (p.o.). However, food and water were provided ad libitum to the rats allocated for intravenous dosing.
At pre-determined time points, blood samples were collected through jugular vein and replenished with an equivalent volume of normal saline. Collected blood was transferred into a labeled eppendorf tube containing 10 μL of heparin as an anticoagulant. Typically blood samples were collected at 0.08, 0.25, 0.5, 1, 2, 4, 6, 8, and 24 h post dose. Blood samples were centrifuged at 4000 rpm for 10 min. Plasma was separated and stored frozen at −80° C. until analysis. The concentrations of the test compounds were quantified in plasma by qualified LC-MS/MS method using suitable extraction technique. The test compounds were quantified in the calibration range around 1-1000 ng/mL in plasma. Study samples were analyzed using calibration samples in the batch and quality control samples spread across the batch.
Pharmacokinetic parameters Cmax, AUCt, t1/2. Clearance and Bioavailability (F) were calculated using standard non-compartmental model by using Phoenix WinNonlin 6.0.4 version software package.

In series [6] the test system is Male Sprague Dawley rats. The experiment in a line: Amphetamine-induced hyperlocomotion. In kind it is in vivo, rat. The settings on record: 3 mg/kg, p.o., dosed 30 min prior to trial. The procedure: Male Sprague Dawley rats of 230-280 g body weight were used. Rats were weighed and randomized according to their body weights. Following day, the rats were brought to the laboratory 1 h prior to test. In the morning session, rats were habituated to open field arena for 15 min. Test compound/vehicle and amphetamine/vehicle were administered 30 min prior to the trial. After the post-dose interval, rats were placed in the open field and locomotion was recorded for a period of 15 min. Amphetamine-induced hyperlocomotion models positive symptoms of schizophrenia.

Series [7] is described as follows: Rodent brain penetration study. In kind it is in vivo. The settings on record: rat, brain/plasma, po, fed male Wistar rats, 3 mg/kg p.o., mean ± S.D, n = 3, read-out: Rat Brain Penetration (Cbrain/Cplasma) at 3 mg/kg, p.o. @ 1 h. The procedure: Male Wistar rats (260±40 g) were used as experimental animals. Three animals were housed in each cage. Animals were given water and food ad libitum throughout the experiment and maintained on a 12 h light/dark cycle.
Brain penetration was determined in discrete manner in rats. One day prior to dosing, male Wistar rats were acclimatized and randomly grouped according to their body weight. At each time point (0.50, 1 and 2 h), n=3 animals were used.
The test compounds were suitably preformulated and administered orally at (free base equivalent) 3 mg/kg. Blood samples were removed via cardiac puncture under isoflurane anesthesia. The animals were sacrificed to collect brain tissue. Plasma was separated and brain samples were homogenized. Plasma and brain homogenates were stored frozen at −20° C. until analysis. The concentrations of the test compounds in plasma and brain were determined using LC-MS/MS method.
The test compounds were quantified in plasma and brain homogenate by qualified LC-MS/MS method using suitable extraction technique in the calibration range of 1-500 ng/mL. Study samples were analyzed using calibration samples in the batch and quality control samples spread across the batch. Extent of brain-plasma ratio (Cbrain/Cplasma) was calculated.

The subject of series [8] is Rats. Kind of series: Tardive dyskinesia test (vacuous chewing movements and tongue protrusions). In kind it is in vivo, rat. Conditions: 38 mg/kg, i.m. single dose, scored weekly for 4 weeks. The procedure:
Rats weighing 200-230 g were acclimatized to the plexiglass observation cages (30×20×30 cm) equipped with mirrors for 5 min. After acclimatization, basal vacuous chewing movements (VCMs) and tongue protrusions (TPs) of the rats were quantified manually for 5 min. Rats were randomized based on the basal readings. Rats received a single dose of sesame oil (vehicle treatment) or haloperidol decanoate (38 mg/kg, i.m. positive control). Example-2, 10 mg/kg, p.o. ([…]) was administered for 4 weeks. VCMs and TPs were scored on weekly basis for 4 weeks. Tardive dyskinesia is a side effect of antipsychotic medications.

Setting [9] is: intravenous (bolus) 1 mg/kg, male Wistar rats.
Setting [10] is: oral (gavage) 3 mg/kg, fasted male Wistar rats.

Where a name gives a salt, the structure may show the parent alone.

In general, Ki refers to the dissociation constant of the complex between target and ligand, obtained from inhibition or displacement. The term AUC(0-t) denotes exposure summed from dosing to a finite time, without extrapolation to infinity. Low values mean low exposure, high ones high exposure. Broadly, the clearance is the rate of elimination divided by the concentration. Read a low clearance as a low capacity for elimination. The half-life is the time needed for the level to fall by half in the phase considered. The low end stands for fast loss, the high end for slow loss. The term bioavailability denotes dose-corrected exposure relative to a reference, in per cent. As usually defined, the Cmax is the peak of the concentration-time curve.

T2 sequence (P14416 1-414 isoform P14416-2): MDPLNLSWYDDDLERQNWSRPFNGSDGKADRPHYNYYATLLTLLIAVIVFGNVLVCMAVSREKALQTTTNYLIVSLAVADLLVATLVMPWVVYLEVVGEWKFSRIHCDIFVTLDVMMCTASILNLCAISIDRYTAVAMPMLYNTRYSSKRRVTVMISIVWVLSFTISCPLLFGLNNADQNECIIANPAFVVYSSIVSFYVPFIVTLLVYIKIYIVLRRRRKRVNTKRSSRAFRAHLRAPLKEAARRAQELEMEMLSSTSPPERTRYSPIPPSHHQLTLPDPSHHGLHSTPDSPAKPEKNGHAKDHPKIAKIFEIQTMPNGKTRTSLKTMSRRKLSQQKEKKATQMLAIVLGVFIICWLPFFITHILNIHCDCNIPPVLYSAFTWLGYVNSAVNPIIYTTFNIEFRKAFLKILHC

For the compound `O=C1C[C@H]2CCCN2C(=O)N1C[C@H]1CCCC[C@H]1CN1CCN(c2nsc3ccccc23)CC1` [Example 27, 2-[2-(4-Benzo[d]isothiazol-3-yl-piperazin-1-ylmethyl)-cyclohexylmethyl]-tetrahydro-pyrrolo[1,2-c]pyrimidine-1,3-dione oxalate], the inhibitory constant (Ki) is greater than 10 µM in series [1], 2 nM in series [2], 0.2 nM in series [3] and 4.7 nM in series [4]. Besides, the area under the curve AUC(0-t) was determined as 360 ± 10 ng·h/mL in series [5] (setting [9]) and 173 ± 92 ng·h/mL in series [5] (setting [10]). The clearance in series [5] (setting [9]) amounted to 45 ± 1.3 mL/min/kg. Moreover, the half-life in series [5] (setting [9]) was 2.4 ± 0.4 h; in series [5] (setting [10]), 1.8 ± 0.1 h. Further, in series [5] (oral 3 mg/kg vs intravenous 1 mg/kg, male Wistar rats, read-out: F (Bioavailability)), the bioavailability was 16 ± 8%. Moreover, the Cmax in series [5] (setting [10]) turned out to be 186 ± 109 ng/mL. Further, the “Inference, amphetamine antagonism (hyperlocomotion)” value in series [6] is on record as “Active”. In addition, the Kp at 1 h in series [7] turned out to be 1.21 ± 0.13.
For `CCCCCCCCCC(=O)OC1(c2ccc(Cl)cc2)CCN(CCCC(=O)c2ccc(F)cc2)CC1` [Haloperidol decanoate, reference compound], the “Inference, tardive dyskinesia test (VCMs and TPs vs vehicle group)” value in series [8] is “Increased number of VCMs and TPs”.
